PubChem BioAssay (NCI)
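Following 48 hours of exposure in 96-well plates, responses at five concentrations were used to interpolate endpoints linearly. TGI: concentration producing complete growth inhibition.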

Experiments:
Experiment in all cases: DTP human tumour cell line panel, 48 h
786-0 renal = tested on: 786-0 renal
A549 NSCLC = tested on: A549 NSCLC
ACHN renal = tested on: ACHN renal
CAKI-1 renal = tested on: CAKI-1 renal
CCRF-CEM leukemia = tested on: CCRF-CEM leukemia
COLO 205 colon = tested on: COLO 205 colon
DLD-1 colon = tested on: DLD-1 colon
DMS 114 small cell lung = tested on: DMS 114 small cell lung
DMS 273 small cell lung = tested on: DMS 273 small cell lung
EKVX NSCLC = tested on: EKVX NSCLC
HCC-2998 colon = tested on: HCC-2998 colon
HCT-116 colon = tested on: HCT-116 colon
HOP-92 NSCLC = tested on: HOP-92 NSCLC
HT29 colon = tested on: HT29 colon
IGROV1 ovarian = tested on: IGROV1 ovarian
K-562 leukemia = tested on: K-562 leukemia
KM12 colon = tested on: KM12 colon
KM20L2 colon = tested on: KM20L2 colon
LOX IMVI melanoma = tested on: LOX IMVI melanoma
LXFL 529 NSCLC = tested on: LXFL 529 NSCLC
M14 melanoma = tested on: M14 melanoma
M19-MEL melanoma = tested on: M19-MEL melanoma
MALME-3M melanoma = tested on: MALME-3M melanoma
MOLT-4 leukemia = tested on: MOLT-4 leukemia
NCI-H23 lung = tested on: NCI-H23 lung
NCI-H460 lung = tested on: NCI-H460 lung
NCI-H522 lung = tested on: NCI-H522 lung
OVCAR-3 ovarian = tested on: OVCAR-3 ovarian
OVCAR-4 ovarian = tested on: OVCAR-4 ovarian
OVCAR-5 ovarian = tested on: OVCAR-5 ovarian
OVCAR-8 ovarian = tested on: OVCAR-8 ovarian
RXF 393 renal = tested on: RXF 393 renal
SF-268 CNS = tested on: SF-268 CNS
SF-295 CNS = tested on: SF-295 CNS
SF-539 CNS = tested on: SF-539 CNS
SK-MEL-2 melanoma = tested on: SK-MEL-2 melanoma
SK-MEL-28 melanoma = tested on: SK-MEL-28 melanoma
SK-MEL-5 melanoma = tested on: SK-MEL-5 melanoma
SK-OV-3 ovarian = tested on: SK-OV-3 ovarian
SN12C renal = tested on: SN12C renal
SNB-19 CNS = tested on: SNB-19 CNS
SNB-75 CNS = tested on: SNB-75 CNS
SNB-78 CNS = tested on: SNB-78 CNS
SR leukemia = tested on: SR leukemia
SW-620 colon = tested on: SW-620 colon
TK-10 renal = tested on: TK-10 renal
U251 CNS = tested on: U251 CNS
UACC-62 melanoma = tested on: UACC-62 melanoma
UO-31 renal = tested on: UO-31 renal
XF 498 CNS = tested on: XF 498 CNS
A498 renal = tested on: A498 renal
HCT-15 colon = tested on: HCT-15 colon
HL-60(TB) leukemia = tested on: HL-60(TB) leukemia
HOP-62 NSCLC = tested on: HOP-62 NSCLC
NCI-H226 lung = tested on: NCI-H226 lung
RPMI-8226 leukemia = tested on: RPMI-8226 leukemia
UACC-257 melanoma = tested on: UACC-257 melanoma

**Q.** How did the TGI (786-0 renal) turn out when `CCOC(=O)C1COc2cc(-c3cc(=O)c4ccccc4o3)ccc2O1` (stereo unspecified) was run?
**A.** > 100 µM

**Q.** What about the TGI (A549 NSCLC) of the same compound?
**A.** > 100 µM

**Q.** And the TGI (ACHN renal)?
**A.** > 100 µM

**Q.** What about the TGI (CAKI-1 renal) of the same compound?
**A.** > 100 µM

**Q.** What about the TGI (CCRF-CEM leukemia) of the same compound?
**A.** > 100 µM

**Q.** And the TGI (COLO 205 colon)?
**A.** > 100 µM

**Q.** What about the TGI (DLD-1 colon) of the same compound?
**A.** > 100 µM

**Q.** What about the TGI (DMS 114 small cell lung) of the same compound?
**A.** > 100 µM

**Q.** And the TGI (DMS 273 small cell lung)?
**A.** > 100 µM

**Q.** What about the TGI (EKVX NSCLC) of the same compound?
**A.** > 100 µM

**Q.** And the TGI (HCC-2998 colon)?
**A.** > 100 µM

**Q.** What about the TGI (HCT-116 colon) of the same compound?
**A.** > 100 µM

**Q.** What about the TGI (HOP-92 NSCLC) of the same compound?
**A.** 39.3 µM

**Q.** What about the TGI (HT29 colon) of the same compound?
**A.** 56.3 µM

**Q.** What about the TGI (IGROV1 ovarian) of the same compound?
**A.** > 100 µM

**Q.** What about the TGI (K-562 leukemia) of the same compound?
**A.** > 100 µM

**Q.** What about the TGI (KM12 colon) of the same compound?
**A.** > 100 µM

**Q.** What about the TGI (KM20L2 colon) of the same compound?
**A.** > 100 µM

**Q.** And the TGI (LOX IMVI melanoma)?
**A.** > 100 µM

**Q.** What about the TGI (LXFL 529 NSCLC) of the same compound?
**A.** > 100 µM

**Q.** What about the TGI (M14 melanoma) of the same compound?
**A.** > 100 µM

**Q.** What about the TGI (M19-MEL melanoma) of the same compound?
**A.** > 100 µM

**Q.** And the TGI (MALME-3M melanoma)?
**A.** > 100 µM

**Q.** And the TGI (MOLT-4 leukemia)?
**A.** > 100 µM

**Q.** And the TGI (NCI-H23 lung)?
**A.** > 100 µM

**Q.** And the TGI (NCI-H460 lung)?
**A.** > 100 µM

**Q.** And the TGI (NCI-H522 lung)?
**A.** > 100 µM

**Q.** What about the TGI (OVCAR-3 ovarian) of the same compound?
**A.** > 100 µM

**Q.** And the TGI (OVCAR-4 ovarian)?
**A.** > 100 µM

**Q.** What about the TGI (OVCAR-5 ovarian) of the same compound?
**A.** > 100 µM

**Q.** And the TGI (OVCAR-8 ovarian)?
**A.** 93.6 µM

**Q.** And the TGI (RXF 393 renal)?
**A.** > 100 µM

**Q.** What about the TGI (SF-268 CNS) of the same compound?
**A.** > 100 µM

**Q.** What about the TGI (SF-295 CNS) of the same compound?
**A.** > 100 µM

**Q.** And the TGI (SF-539 CNS)?
**A.** 96.3 µM

**Q.** And the TGI (SK-MEL-2 melanoma)?
**A.** > 100 µM

**Q.** And the TGI (SK-MEL-28 melanoma)?
**A.** > 100 µM

**Q.** What about the TGI (SK-MEL-5 melanoma) of the same compound?
**A.** > 100 µM

**Q.** What about the TGI (SK-OV-3 ovarian) of the same compound?
**A.** > 100 µM

**Q.** What about the TGI (SN12C renal) of the same compound?
**A.** > 100 µM

**Q.** And the TGI (SNB-19 CNS)?
**A.** > 100 µM

**Q.** What about the TGI (SNB-75 CNS) of the same compound?
**A.** > 100 µM

**Q.** And the TGI (SNB-78 CNS)?
**A.** > 100 µM

**Q.** What about the TGI (SR leukemia) of the same compound?
**A.** > 100 µM

**Q.** What about the TGI (SW-620 colon) of the same compound?
**A.** > 100 µM

**Q.** What about the TGI (TK-10 renal) of the same compound?
**A.** > 100 µM

**Q.** And the TGI (U251 CNS)?
**A.** > 100 µM

**Q.** And the TGI (UACC-62 melanoma)?
**A.** > 100 µM

**Q.** And the TGI (UO-31 renal)?
**A.** 76.8 µM

**Q.** And the TGI (XF 498 CNS)?
**A.** 96.9 µM

**Q.** How did the TGI (786-0 renal) turn out when `Cc1nc(-n2nc(-c3ccccc3)cc2-c2ccccc2)sc1C(/C=C/c1ccc([N+](=O)[O-])cc1)=N/NC(=O)c1ccncc1` was run?
**A.** 37 µM

**Q.** What about the TGI (A498 renal) of the same compound?
**A.** > 100 µM

**Q.** What about the TGI (A549 NSCLC) of the same compound?
**A.** > 100 µM

**Q.** What about the TGI (ACHN renal) of the same compound?
**A.** > 100 µM

**Q.** And the TGI (CCRF-CEM leukemia)?
**A.** > 100 µM

**Q.** And the TGI (COLO 205 colon)?
**A.** 58.4 µM

**Q.** What about the TGI (DLD-1 colon) of the same compound?
**A.** 33.2 µM

**Q.** And the TGI (DMS 114 small cell lung)?
**A.** 58.5 µM

**Q.** And the TGI (EKVX NSCLC)?
**A.** > 100 µM

**Q.** What about the TGI (HCC-2998 colon) of the same compound?
**A.** 26.6 µM

**Q.** What about the TGI (HCT-116 colon) of the same compound?
**A.** 21.8 µM

**Q.** What about the TGI (HCT-15 colon) of the same compound?
**A.** 96.2 µM

**Q.** What about the TGI (HL-60(TB) leukemia) of the same compound?
**A.** 36.7 µM

**Q.** What about the TGI (HOP-62 NSCLC) of the same compound?
**A.** 35 µM

**Q.** And the TGI (HOP-92 NSCLC)?
**A.** 54.8 µM

**Q.** What about the TGI (HT29 colon) of the same compound?
**A.** > 100 µM

**Q.** And the TGI (IGROV1 ovarian)?
**A.** > 100 µM

**Q.** What about the TGI (K-562 leukemia) of the same compound?
**A.** > 100 µM

**Q.** What about the TGI (KM12 colon) of the same compound?
**A.** 22.4 µM

**Q.** And the TGI (KM20L2 colon)?
**A.** > 100 µM

**Q.** What about the TGI (LOX IMVI melanoma) of the same compound?
**A.** 48.8 µM

**Q.** And the TGI (LXFL 529 NSCLC)?
**A.** 43.2 µM

**Q.** And the TGI (M14 melanoma)?
**A.** 50.7 µM

**Q.** And the TGI (M19-MEL melanoma)?
**A.** 92.6 µM

**Q.** And the TGI (MALME-3M melanoma)?
**A.** > 100 µM

**Q.** And the TGI (MOLT-4 leukemia)?
**A.** 43.4 µM

**Q.** And the TGI (NCI-H226 lung)?
**A.** 56.9 µM

**Q.** What about the TGI (NCI-H23 lung) of the same compound?
**A.** 40.6 µM

**Q.** What about the TGI (NCI-H460 lung) of the same compound?
**A.** > 100 µM

**Q.** And the TGI (OVCAR-3 ovarian)?
**A.** 42.5 µM

**Q.** What about the TGI (OVCAR-5 ovarian) of the same compound?
**A.** > 100 µM

**Q.** What about the TGI (OVCAR-8 ovarian) of the same compound?
**A.** > 100 µM

**Q.** And the TGI (RPMI-8226 leukemia)?
**A.** > 100 µM

**Q.** What about the TGI (RXF 393 renal) of the same compound?
**A.** 76.6 µM

**Q.** What about the TGI (SF-268 CNS) of the same compound?
**A.** > 100 µM

**Q.** What about the TGI (SF-295 CNS) of the same compound?
**A.** > 100 µM

**Q.** And the TGI (SF-539 CNS)?
**A.** 41.5 µM

**Q.** What about the TGI (SK-MEL-2 melanoma) of the same compound?
**A.** 66.1 µM

**Q.** What about the TGI (SK-MEL-28 melanoma) of the same compound?
**A.** 99.2 µM

**Q.** And the TGI (SK-MEL-5 melanoma)?
**A.** 63.7 µM

**Q.** What about the TGI (SK-OV-3 ovarian) of the same compound?
**A.** > 100 µM

**Q.** And the TGI (SN12C renal)?
**A.** > 100 µM

**Q.** What about the TGI (SNB-19 CNS) of the same compound?
**A.** > 100 µM

**Q.** And the TGI (SNB-75 CNS)?
**A.** > 100 µM

**Q.** What about the TGI (SNB-78 CNS) of the same compound?
**A.** 61 µM

**Q.** And the TGI (SW-620 colon)?
**A.** > 100 µM

**Q.** What about the TGI (TK-10 renal) of the same compound?
**A.** 82.9 µM

**Q.** And the TGI (U251 CNS)?
**A.** > 100 µM

**Q.** What about the TGI (UACC-257 melanoma) of the same compound?
**A.** > 100 µM

**Q.** What about the TGI (UACC-62 melanoma) of the same compound?
**A.** 81.1 µM

**Q.** What about the TGI (UO-31 renal) of the same compound?
**A.** 90.4 µM
